Experimental data taken from US20260250290A1 (BRISTOL-MYERS SQUIBB COMPANY, priority 2023, published 2026).
Structures can show the parent of a compound that is named as a salt.

Molecular target: T1, full length SGK1 (Homo sapiens, UniProt O00141)
T1 construct: 125 μM full length SGK1 (Life Technologies Part #PR7358A); purchased Life Technologies PR7358A
T1 sequence (O00141 1-431): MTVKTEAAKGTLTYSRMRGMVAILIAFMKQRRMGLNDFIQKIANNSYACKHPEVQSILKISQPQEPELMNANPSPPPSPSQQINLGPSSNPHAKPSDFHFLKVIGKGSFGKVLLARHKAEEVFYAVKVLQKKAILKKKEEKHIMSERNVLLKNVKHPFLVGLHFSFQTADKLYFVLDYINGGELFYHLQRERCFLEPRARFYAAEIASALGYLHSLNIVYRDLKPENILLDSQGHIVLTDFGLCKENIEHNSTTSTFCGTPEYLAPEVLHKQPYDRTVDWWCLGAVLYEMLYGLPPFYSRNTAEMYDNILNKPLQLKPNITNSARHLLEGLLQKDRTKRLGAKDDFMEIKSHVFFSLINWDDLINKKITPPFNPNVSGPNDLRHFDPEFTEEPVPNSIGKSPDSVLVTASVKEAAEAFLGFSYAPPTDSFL
Test: SGK1 inhibition Assay A (Caliper LabChip electrophoretic separation of fluorescent peptide substrate and phosphorylated product)
Format: biochemical
Details: Assay A; 20 μM ATP, 40 min incubation; read-out: SGK1 IC50

**Q.** For CS(=O)(=O)c1ccc(-c2cc(N3CCC[C@@H](NC(=O)c4ccc5c(c4)CC5)C3)c3c(N)ncnn23)cc1 [Example 83, (R)-N-(1-(4-amino-7-(4-(methylsulfonyl)phenyl)pyrrolo[2,1-f][1,2,4]triazin-5-yl)piperidin-3-yl)bicyclo[4.2.0]octa-1(6),2,4-triene-3-carboxamide, TFA], which IC50 is on record?
**A.** 48 nM

**Q.** Which IC50 does the source give for Cc1ccc(C(=O)N[C@@H]2CCCN(c3cc(-c4ccc(S(C)(=O)=O)cc4)n4ncnc(N)c34)C2)cc1C [Example 84, (R)-N-(1-(4-amino-7-(4-(methylsulfonyl)phenyl)pyrrolo[2,1-f][1,2,4]triazin-5-yl)piperidin-3-yl)-3,4-dimethylbenzamide, TFA] here?
**A.** 19 nM

**Q.** With CS(=O)(=O)c1ccc(-c2cc(N3CCC[C@@H](NC(=O)c4cccc(Br)c4)C3)c3c(N)ncnn23)cc1 [Example 85, (R)-N-(1-(4-amino-7-(4-(methylsulfonyl)phenyl)pyrrolo[2,1-f][1,2,4]triazin-5-yl)piperidin-3-yl)-3-bromobenzamide, TFA] as the compound, how does the IC50 read?
**A.** 27 nM

**Q.** Which IC50 does the source give for CS(=O)(=O)c1ccc(-c2cc(N3CCC[C@@H](NC(=O)c4ccnc(Br)c4)C3)c3c(N)ncnn23)cc1 [Example 86, (R)-N-(1-(4-amino-7-(4-(methylsulfonyl)phenyl)pyrrolo[2,1-f][1,2,4]triazin-5-yl)piperidin-3-yl)-2-bromoisonicotinamide, TFA] here?
**A.** 9 nM

**Q.** Cc1ccc(C(=O)N[C@@H]2CCCN(c3cc(-c4ccc(S(C)(=O)=O)cc4)n4ncnc(N)c34)C2)s1 [Example 87, (R)-N-(1-(4-amino-7-(4-(methylsulfonyl)phenyl)pyrrolo[2,1-f][1,2,4]triazin-5-yl)piperidin-3-yl)-5-methylthiophene-2-carboxamide] was tested. Which IC50 did it give?
**A.** 2 nM

**Q.** For CS(=O)(=O)c1ccc(-c2cc(N3CCC[C@@H](NC(=O)c4cccs4)C3)c3c(N)ncnn23)cc1 [Example 88, (R)-N-(1-(4-amino-7-(4-(methylsulfonyl)phenyl)pyrrolo[2,1-f][1,2,4]triazin-5-yl)piperidin-3-yl)thiophene-2-carboxamide, TFA], which IC50 is on record?
**A.** 8 nM

**Q.** How did the IC50 turn out when Cc1cc(C(=O)N[C@@H]2CCCN(c3cc(-c4ccc(S(C)(=O)=O)cc4)n4ncnc(N)c34)C2)sc1C [Example 89, (R)-N-(1-(4-amino-7-(4-(methylsulfonyl)phenyl)pyrrolo[2,1-f][1,2,4]triazin-5-yl)piperidin-3-yl)-4,5-dimethylthiophene-2-carboxamide] was run?
**A.** 6 nM

**Q.** Which IC50 does the source give for CS(=O)(=O)c1ccc(-c2cc(N3CCC[C@@H](NC(=O)c4cc5c(s4)CCCC5)C3)c3c(N)ncnn23)cc1 [Example 90, (R)-N-(1-(4-amino-7-(4-(methylsulfonyl)phenyl)pyrrolo[2,1-f][1,2,4]triazin-5-yl)piperidin-3-yl)-4,5,6,7-tetrahydrobenzo[b] thiophene-2-carboxamide] here?
**A.** 49 nM

**Q.** For CCc1ccc(C(=O)N[C@@H]2CCCN(c3cc(-c4ccc(S(C)(=O)=O)cc4)n4ncnc(N)c34)C2)s1 [Example 91, (R)-N-(1-(4-amino-7-(4-(methylsulfonyl)phenyl)pyrrolo[2,1-f][1,2,4]triazin-5-yl)piperidin-3-yl)-5-ethylthiophone-2-carboxamide], which IC50 is on record?
**A.** 10 nM

**Q.** With CS(=O)(=O)c1ccc(-c2cc(N3CCC[C@@H](NC(=O)c4ccc(C5CC5)s4)C3)c3c(N)ncnn23)cc1 [Example 92, (R)-N-(1-(4-amino-7-(4-(methylsulfonyl)phenyl)pyrrolo[2,1-f][1,2,4]triazin-5-yl)piperidin-3-yl)-5-cyclopropylthiophene-2-carboxamide, TFA] as the compound, how does the IC50 read?
**A.** 10 nM

**Q.** Which IC50 does the source give for CS(=O)(=O)c1ccc(-c2cc(N3CCC[C@@H](NC(=O)c4ccc(F)s4)C3)c3c(N)ncnn23)cc1 [Example 93, (R)-N-(1-(4-amino-7-(4-(methylsulfonyl)phenyl)pyrrolo[2,1-f][1,2,4]triazin-5-yl)piperidin-3-yl)-5-fluorothiophene-2-carboxamide] here?
**A.** 5 nM

**Q.** With CS(=O)(=O)c1ccc(-c2cc(N3CCC[C@@H](NC(=O)c4ccc(Cl)s4)C3)c3c(N)ncnn23)cc1 [Example 94, (R)-N-(1-(4-amino-7-(4-(methylsulfonyl)phenyl)pyrrolo[2,1-f][1,2,4]triazin-5-yl)piperidin-3-yl)-5-chlorothiophene-2-carboxamide] as the compound, how does the IC50 read?
**A.** 3 nM

**Q.** Which IC50 does the source give for CS(=O)(=O)c1ccc(-c2cc(N3CCC[C@@H](NC(=O)c4ccc(Br)s4)C3)c3c(N)ncnn23)cc1 [Example 95, (R)-N-(1-(4-amino-7-(4-(methylsulfonyl)phenyl)pyrrolo[2,1-f][1,2,4]triazin-5-yl)piperidin-3-yl)-5-bromothiophene-2-carboxamide, TFA] here?
**A.** 6 nM

**Q.** With COc1ccc(C(=O)N[C@@H]2CCCN(c3cc(-c4ccc(S(C)(=O)=O)cc4)n4ncnc(N)c34)C2)s1 [Example 96, (R)-N-(1-(4-amino-7-(4-(methylsulfonyl)phenyl)pyrrolo[2,1-f][1,2,4]triazin-5-yl)piperidin-3-yl)-5-methoxythiophene-2-carboxamide] as the compound, how does the IC50 read?
**A.** 8 nM

**Q.** Cc1csc(C(=O)N[C@@H]2CCCN(c3cc(-c4ccc(S(C)(=O)=O)cc4)n4ncnc(N)c34)C2)c1 [Example 97, (R)-N-(1-(4-amino-7-(4-(methylsulfonyl)phenyl)pyrrolo[2,1-f][1,2,4]triazin-5-yl)piperidin-3-yl)-4-methylthiophene-2-carboxamide, TFA] was tested. Which IC50 did it give?
**A.** 3 nM

**Q.** Which IC50 does the source give for CS(=O)(=O)c1ccc(-c2cc(N3CCC[C@@H](NC(=O)c4sccc4F)C3)c3c(N)ncnn23)cc1 [Example 98, (R)-N-(1-(4-amino-7-(4-(methylsulfonyl)phenyl)pyrrolo[2,1-f][1,2,4]triazin-5-yl)piperidin-3-yl)-3-fluorothiophene-2-carboxamide] here?
**A.** 14 nM

**Q.** CCOc1ccsc1C(=O)N[C@@H]1CCCN(c2cc(-c3ccc(S(C)(=O)=O)cc3)n3ncnc(N)c23)C1 [Example 99, (R)-N-(1-(4-amino-7-(4-(methylsulfonyl)phenyl)pyrrolo[2,1-f][1,2,4]triazin-5-yl)piperidin-3-yl)-3-ethoxythiophene-2-carboxamide] was tested. Which IC50 did it give?
**A.** 7 nM

**Q.** For COc1cc(C)sc1C(=O)N[C@@H]1CCCN(c2cc(-c3ccc(S(C)(=O)=O)cc3)n3ncnc(N)c23)C1 [Example 100, (R)-N-(1-(4-amino-7-(4-(methylsulfonyl)phenyl)pyrrolo[2,1-f][1,2,4]triazin-5-yl)piperidin-3-yl)-3-methoxy-5-methylthiophene-2-carboxamide], which IC50 is on record?
**A.** 8 nM

**Q.** How did the IC50 turn out when Cc1cnc(C(=O)N[C@@H]2CCCN(c3cc(-c4ccc(S(C)(=O)=O)cc4)n4ncnc(N)c34)C2)s1 [Example 101, (R)-N-(1-(4-amino-7-(4-(methylsulfonyl)phenyl)pyrrolo[2,1-f][1,2,4]triazin-5-yl)piperidin-3-yl)-5-methylthiazole-2-carboxamide] was run?
**A.** 21 nM

**Q.** Which IC50 does the source give for COc1cncc(C(=O)N[C@@H]2CCCN(c3cc(-c4ccc(S(C)(=O)=O)cc4)n4ncnc(N)c34)C2)c1 [Example 102, (R)-N-(1-(4-amino-7-(4-(methylsulfonyl)phenyl)pyrrolo[2,1-f][1,2,4]triazin-5-yl)piperidin-3-yl)-5-methoxynicotinamide, TFA] here?
**A.** 45 nM

**Q.** With CS(=O)(=O)c1ccc(-c2cc(N3CCC[C@H](C(=O)Nc4nccs4)C3)c3c(N)ncnn23)cc1 [Example 103, (S)-1-(4-amino-7-(4-(methylsulfonyl)phenyl)pyrrolo[2,1-f][1,2,4]triazin-5-yl)-N-(thiazol-2-yl)piperidine-3-carboxamide] as the compound, how does the IC50 read?
**A.** 726 nM

**Q.** With CS(=O)(=O)c1ccc(-c2cc(N3CCC[C@@H](C(=O)Nc4nccs4)C3)c3c(N)ncnn23)cc1 [Example 104, (R)-1-(4-amino-7-(4-(methylsulfonyl)phenyl)pyrrolo[2,1-f][1,2,4]triazin-5-yl)-N-(thiazol-2-yl)piperidine-3-carboxamide] as the compound, how does the IC50 read?
**A.** 247 nM

**Q.** For CS(=O)(=O)c1ccc(-c2cc(N3CCC[C@@H](C(=O)Nc4ccccc4)C3)c3c(N)ncnn23)cc1 [Example 105, (R)-1-(4-amino-7-(4-(methylsulfonyl)phenyl)pyrrolo [2,1-f][1,2,4]triazin-5-yl)-N-phenylpiperidine-3-carboxamide], which IC50 is on record?
**A.** 335 nM

**Q.** CS(=O)(=O)c1ccc(-c2cc(N3CCC[C@@H](C(=O)NCc4ccccc4)C3)c3c(N)ncnn23)cc1 [Example 106, (R)-1-(4-amino-7-(4-(methylsulfonyl)phenyl)pyrrolo [2,1-f][1,2,4]triazin-5-yl)-N-benzylpiperidine-3-carboxamide] was tested. Which IC50 did it give?
**A.** 823 nM

**Q.** Which IC50 does the source give for CS(=O)(=O)N1CC=C(c2cc(N3CCC[C@@H](NC(=O)c4ccns4)C3)c3c(N)ncnn23)C1 [Example 112, (R)—N-(1-(4-amino-7-(1-(methylsulfonyl)-2,5-dihydro-1H-pyrrol-3-yl)pyrrolo[2,1-f][1,2,4]triazin-5-yl)piperidin-3-yl)isothiazole-5-carboxamide, TFA] here?
**A.** 4 nM

**Q.** How did the IC50 turn out when CS(=O)(=O)N1CC=C(c2cc(N3CCC[C@@H](NC(=O)c4ccccc4)C3)c3c(N)ncnn23)C1 [Example 113, (R)—N-(1-(4-amino-7-(1-(methylsulfonyl)-2,5-dihydro-1H-pyrrol-3-yl)pyrrolo[2,1-f][1,2,4]triazin-5-yl)piperidin-3-yl)benzamide, TFA] was run?
**A.** 23 nM

**Q.** For COc1cc(C(=O)N[C@@H]2CCCN(c3cc(C4=CCN(S(C)(=O)=O)C4)n4ncnc(N)c34)C2)ccn1 [Example 114, (R)—N-(1-(4-amino-7-(1-(methylsulfonyl)-2,5-dihydro-1H-pyrrol-3-yl)pyrrolo[2,1-f][1,2,4]triazin-5-yl)piperidin-3-yl)-2-methoxyisonicotinamide], which IC50 is on record?
**A.** 16 nM
